Here are results for six compounds from patent publication US20090281119A1, “ACID ADDITION SALTS OF N-ETHYI-N'-[2-METHOXY-4-(5-METHYI-4-PRYIMIDIN-2-YL)PHENYL]UREA AND USES THEREOF” (Cytopia Research Pty Ltd., priority 2005, published 2009).

Where only a bound is given, the exact number is not on record here.

Data set [1] can be described thus: hygroscopicity of the salts. Type of data set: physicochemical. To be noted: crystal form / solid salt. The source says:
(§1) Acid addition salts of the first aspect are well-suited to pharmaceutical formulation as either solution or solid dosage forms. […] It has been shown that these particular salts are also non-hygroscopic and this remains unchanged when stored in a humid environment. The lower hygroscopicity is a further advantage for processing and storing such acid addition salts.

The nature of data set [2]: physchem. In kind it is physicochemical. To be noted: 24 °C; water at 24±3° C.
Description: as §1

Data set [3] relates to in vivo tumour models. The data set can be described thus: vascular targeting activity in in vivo tumour models.
The test system of data set [4] is tubulin. The data set can be described thus: inhibition of tubulin polymerisation. In kind it is biochemical. The following applies: read-out: inhibits tubulin polymerisation, IC50. The source says:
One pharmacologically important mechanism of inhibiting cellular proliferation is by means of binding tubulin. Tubulin is an asymmetric dimer composed of alpha and beta subunits, that polymerizes to form structural components of the cytoskeleton called microtubules. Microtubules must be highly dynamic in order to carry out many of their functions. At certain stages of the cell cycle, or in particular cell types or organelles, stable microtubules are required, such as for transport within axons or for ciliary and flagellar movement. Micro-tubules assemble during the G2 phase of the cell cycle, and participate in the formation of the mitotic spindle which facilitates the segregation of sister chromatids during the process of cell division. The essential role of microtubules in cell division and the ability of drugs that interact with tubulin to interfere with the cell cycle have made tubulin a successful target for applications that include anti-cancer drugs, fungicides, and herbicides.
The compound of formula I, and by analogy its acid addition salts, inhibits tubulin polymerisation with an IC50 of 3 μM. […] The inhibition of tubulin polymerisation makes a compound of formula I suitable for the treatment of cancer, viral and bacterial infections, vascular restenosis, inflammatory diseases, autoimmune diseases, and psoriasis.

For `CCC[C@H](Nc1nc(-c2ccc(NC(=O)NCC)c(OC)c2)ncc1C)c1cccnc1.O=C(O)C(O)C(O)C(=O)O` [tartrate salt, N-ethyl-N′-[2-methoxy-4-(5-methyl-4-{[(1S)-1-pyridin-3-ylbutyl]amino}pyrimidin-2-yl)phenyl]urea tartrate salt], the hygroscopicity entry in data set [1] is listed as “not hygroscopic”. Besides, the solubility (in general, the concentration that dissolves in the medium under given conditions) in data set [2] is over 2100 µg/mL.

Take `CCC[C@H](Nc1nc(-c2ccc(NC(=O)NCC)c(OC)c2)ncc1C)c1cccnc1.Cl.Cl` [dihydrochloride salt, N-ethyl-N′-[2-methoxy-4-(5-methyl-4-{[(1S)-1-pyridin-3-ylbutyl]amino}pyrimidin-2-yl)phenyl]urea dihydrochloride salt]: in data set [1], the hygroscopicity entry is recorded as “not hygroscopic”. The compound also returned a solubility in data set [2] of over 2100 µg/mL.

In the case of `CCC[C@H](Nc1nc(-c2ccc(NC(=O)NCC)c(OC)c2)ncc1C)c1cccnc1` [compound of formula I, N-ethyl-N′-[2-methoxy-4-(5-methyl-4-{[(1S)-1-pyridin-3-ylbutyl]amino}pyrimidin-2-yl)phenyl]urea], the vascular targeting activity result in data set [3] is “displays vascular targeting activity”. In data set [4], the IC50 – broadly, the point on the concentration scale where inhibition reaches its midpoint – stood at 3000 nM.

In the case of `CCC[C@H](Nc1nc(-c2ccc(NC(=O)NCC)c(OC)c2)ncc1C)c1cccnc1.O=C(O)CC(O)(CC(=O)O)C(=O)O` [citrate salt, N-ethyl-N′-[2-methoxy-4-(5-methyl-4-{[(1S)-1-pyridin-3-ylbutyl]amino}pyrimidin-2-yl)phenyl]urea citrate salt], the hygroscopicity result in data set [1] was “not hygroscopic”. This compound returned a solubility in data set [2] of over 2100 µg/mL.

For `CCC[C@H](Nc1nc(-c2ccc(NC(=O)NCC)c(OC)c2)ncc1C)c1cccnc1.O=C(O)C(=O)O` [mono-oxalate salt, N-ethyl-N′-[2-methoxy-4-(5-methyl-4-{[(1S)-1-pyridin-3-ylbutyl]amino}pyrimidin-2-yl)phenyl]urea mono-oxalate salt], in data set [1], the hygroscopicity result was “not hygroscopic”. Besides, the solubility in data set [2] is over 2100 µg/mL.

For the compound `CCC[C@H](Nc1nc(-c2ccc(NC(=O)NCC)c(OC)c2)ncc1C)c1cccnc1.CS(=O)(=O)O.CS(=O)(=O)O` [di-methanesulfonate salt, N-ethyl-N′-[2-methoxy-4-(5-methyl-4-{[(1S)-1-pyridin-3-ylbutyl]amino}pyrimidin-2-yl)phenyl]urea di-methanesulfonate salt], in data set [1], the hygroscopicity entry is reported as “not hygroscopic”. The compound also came in with a solubility in data set [2] of over 2100 µg/mL.
